Experimental findings from US10525055B2, “Opioid receptor antagonist prodrugs” (Nirsum Laboratories, Inc., priority 2017, dated 2020) are described below.

Data set [1] can be described thus: Solubility determination in oil (cottonseed oil, sesame oil). The conditions noted are these: Sesame oil; volumetric flask method; heating 60 °C, obs. 25 °C. The method, then: A known amount of test substance (˜40 mg) was weighed into the vial, 100 μL of oil was added and heated to 60° C. and then system was slurried to reach equilibrium. […] Extra oil was added into the vial once compound precipitated out and then the system was re-equilibrated at 1000 rpm at room temperature (25° C.). Final concentration was determined by HPLC method as described below in Table 6a and 6b.

The nature of data set [2]: Dog pharmacokinetic studies, deep intramuscular. It is filed as in vivo, Beagle dogs. The conditions noted are these: dog IM, 48 mg/kg, Sesame oil + 1% Benzyl Alcohol. The method, then: The purpose of this study is to determine the pharmacokinetics of test compounds in plasma, following deep intramuscular administration to Beagle dogs (n=3, unless otherwise specified).
(§1) The dose formulation (concentration−400 mg base equivalents/ml in sesame oil+1% benzyl alcohol, unless otherwise specified) was administered via deep intramuscularly (unless otherwise specified). The injection vehicle was also dosed via deep intramuscular route (unless otherwise specified) on contralateral site of each animal at study initiation. The animals were sedated with Propofol at 6 mg/kg via IV administration. Following sedation hair was carefully removed from around the injection site and the area gently cleaned. Care will be taken to avoid irritating skin during shaving and cleaning the injection site. Then dogs will be dosed with deep IM administration. At least 2.5 cm depth from the surface into the central aspect of the quadriceps or biceps femoris muscle, by angling the needle toward the femur. If the needle hits the femur, simply draws back slightly and then inject. The dose volume will be determined by the animals' body weight collected on the morning of dosing day. For repeated administration, the injection sites may be rotated to minimize tissue injury.
Blood samples were collected from a peripheral vessel from restrained, non-sedated animals per sampling time point.
Approximately 0.8 mL blood will be collected at each time point.
Each collected blood sample was centrifuged for 4 minutes at 4° C. and 10000 rpm for plasma collection. Plasma was collected and transferred into a pre-labeled PP tube in dry ice at each time point and precipitated immediately using ACN at a ratio of 1:4 (plasma:ACN). Centrifuged again (10 minutes, 12000 rpm) and obtain the supernatant.
After terminal collection, all supernatant was stored at approximately −80° C. F until bioanalysis.
LC-MS/MS methods for the quantitative determination of test compound in biological matrix were developed. […] The sample analysis was performed concurrently with a set of calibration standards and two sets of QC samples using the LC-MS/MS method.
Plasma concentration versus time data was analyzed by non-compartmental approaches using the Phoenix WinNonlin 6.3 software program. Cmax, Tmax, T1/2, AUC(0-t), AUC(0-inf), MRT(0-t), MRT(0-inf) and graphs of plasma concentration versus time profile were prepared.

Data set [3] is described as follows: Dog clinical observations after intramuscular dosing. It is filed as in vivo, Beagle dogs. The method, then:
Weight monitoring was done every week.
as §1

As for `C=C1CC[C@@]2(O)C3Cc4ccc(OC(=O)OCCCCCCCCCCC)c5c4[C@@]2(CCN3CC2CC2)[C@H]1O5` [Compound 3, (4aS,7aS,12bS)-3-(cyclopropylmethyl)-4a-hydroxy-7-methylene-2,3,4,4a,5,6,7,7a-octahydro-1H-4,12-methanobenzofuro[3,2-e]isoquinolin-9-yl undecyl carbonate], the “Solubility by volumetric flask method: Sesame oil” value in data set [1] is recorded as >400.7 mg/mL. Moreover, in data set [2], the “AUC0-inf (ng · h/mL) prodrug” value amounted to 360 ng·h/mL and the “Half-life t1/2 (hour) prodrug” value turned out to be 63.1 h.
With `C=C1CC[C@@]2(O)C3Cc4ccc(OCOC(=O)OCCCCCCCCCC)c5c4[C@@]2(CCN3CC2CC2)[C@H]1O5` [Compound 35, (((4aS,7aS,12bS)-3-(cyclopropylmethyl)-4a-hydroxy-7-methylene-2,3,4,4a,5,6,7,7a-octahydro-1H-4,12-methanobenzofuro[3,2-e]isoquinolin-9-yl)oxy)methyl decyl carbonate], the “Clinical observations, R-TA” value in data set [3] (dog D1501, 48 mg/kg, 24 hr) is “Red spots at groin”; in data set [3] (dog D1501, 48 mg/kg, 48 hr), “Red spots at groin”. Moreover, the “BT (clinical observations, R-TA)” value is “at groin/BT: 39.1 °C” in data set [3] (dog D1501, 48 mg/kg, 72 hr); “at groin/BT: 39.0 °C” in data set [3] (dog D1501, 48 mg/kg, 96 hr); “at groin/BT: 39.1 °C” in data set [3] (dog D1501, 48 mg/kg, 120 hr); “groin/BT: 38.7 °C” in data set [3] (dog D1501, 48 mg/kg, 144 hr); “groin/BT: 38.2 °C” in data set [3] (dog D1501, 48 mg/kg, 192 hr); “groin/BT: 38.6 °C” in data set [3] (dog D1501, 48 mg/kg, 216 hr). Moreover, the “BT (clinical observations, R-TA)” value in data set [3] (dog D1501, 48 mg/kg, 240 hr) was “groin/BT: 38.2 °C”; in data set [3] (dog D1501, 48 mg/kg, 264 hr), “groin/BT: 38.0 °C”; in data set [3] (dog D1501, 48 mg/kg, 288 hr), “groin/BT: 38.4 °C”; in data set [3] (dog D1501, 48 mg/kg, […]), “groin/BT: 38.9 °C”; in data set [3] (dog D1502 (third dog column), 48 mg/kg, 72 hr) it was “leg/BT: 39.3 °C”; in data set [3] (dog D1502 (third dog column), 48 mg/kg, 96 hr), “leg/BT: 39.3 °C”. Besides, the “BT (clinical observations, R-TA)” value was “BT: 39.4 °C” in data set [3] (dog D1502 (third dog column), 48 mg/kg, 120 hr); “BT: 39.0 °C” in data set [3] (dog D1502 (third dog column), 48 mg/kg, 144 hr); “at calf/BT: 39.2 °C” in data set [3] (dog D1502 (third dog column), 48 mg/kg, 192 hr); “calf/BT: 39.2 °C” in data set [3] (dog D1502 (third dog column), 48 mg/kg, 216 hr); “calf/BT: 38.9 °C” in data set [3] (dog D1502 (third dog column), 48 mg/kg, 240 hr); 6 * 6 cm/BT: 38.7 °C in data set [3] (dog D1502 (third dog column), 48 mg/kg, 264 hr). Further, the “BT (clinical observations, R-TA)” value is 6 * 6 cm/BT: 38.7 °C in data set [3] (dog D1502 (third dog column), 48 mg/kg, 288 hr); “at calf/BT: 39.3 °C” in data set [3] (dog D1502 (third dog column), 48 mg/kg, […]); “red/BT: 39.6 °C” in data set [3] (dog D1502, 48 mg/kg, 72 hr); “red/BT: 38.9 °C” in data set [3] (dog D1502, 48 mg/kg, 96 hr); “red/BT: 39.6 °C” in data set [3] (dog D1502, 48 mg/kg, 120 hr); “redness/BT: 38.9 °C” in data set [3] (dog D1502, 48 mg/kg, 144 hr). Further, the “BT (clinical observations, R-TA)” value in data set [3] (dog D1502, 48 mg/kg, 192 hr) is “BT: 38.7 °C”; in data set [3] (dog D1502, 48 mg/kg, 216 hr), “BT: 39.2 °C”; in data set [3] (dog D1502, 48 mg/kg, 240 hr) it was “BT: 38.6 °C”; in data set [3] (dog D1502, 48 mg/kg, 264 hr), “BT: 38.4 °C”; in data set [3] (dog D1502, 48 mg/kg, 288 hr) it was “BT: 38.6 °C”; in data set [3] (dog D1502, 48 mg/kg, […]), “redness/BT: 39.9 °C”. For the same molecule, the “Half-life t1/2 (hour) prodrug” value in data set [2] came out at 70 h.
`C=C1CC[C@@]2(O)C3Cc4ccc(OCOC(=O)OCCCCCCCC/C=C/CCCCCCCC)c5c4[C@@]2(CCN3CC2CC2)[C@H]1O5` [Compound 1, (((4aS,7aS,12bS)-3-(cyclopropylmethyl)-4a-hydroxy-7-methylene-2,3,4,4a,5,6,7,7a-octahydro-1H-4,12-methanobenzofuro[3,2-e]isoquinolin-9-yl)oxy)methyl ((E)-octadec-9-en-1-yl) carbonate]: in data set [2], the “AUC0-inf (ng · h/mL) prodrug” value was determined as 1040 ng·h/mL and the “Half-life t1/2 (hour) prodrug” value was 261 h.
On to `CCCCCCCC/C=C/CCCCCCCCOC(=O)OCOc1ccc2c3c1O[C@H]1C(=O)CC[C@@]4(O)C(C2)N(CC2CC2)CC[C@]314` [Compound 7, (((4aS,7aR,12bS)-3-(cyclopropylmethyl)-4a-hydroxy-7-oxo-2,3,4,4a,5,6,7,7a-octahydro-1H-4,12-methanobenzofuro[3,2-e]isoquinolin-9-yl)oxy)methyl ((E)-octadec-9-en-1-yl) carbonate], for which, in data set [2], the “AUC0-inf (ng · h/mL) prodrug” value was determined as 610 ng·h/mL.
